Here are results for two compounds from paper PMC7614784, “Structure and function of the RAD51B-RAD51C-RAD51D-XRCC2 tumour suppressor” (Nature, 2023).

The target of test [1] is T1, BCDX2 (RAD51B-RAD51C-RAD51D-XRCC2) (Homo sapiens, UniProt O15315+O43502+O43543+O75771).
T1 construct: four-subunit complex co-expressed in Sf9 cells; N-terminal TwinStrep-TEV tag on XRCC2 removed by TEV protease
The test can be described thus: HPLC of nucleotides extracted from purified complex. The test is classed as binding. The settings on record: nucleotide co-purified with the complex; 2.5 mM Mg2+, pH 7.5; sites: RAD51B and RAD51C.

The target of test [2] is T1, BCDX2 (RAD51B-RAD51C-RAD51D-XRCC2). The test can be described thus: cryo-EM structure ([…] Å and […] Å). The test is classed as binding. The settings on record: Mg2+, sample vitrified with ADP.AlFx or ADP.BeFx.
Test [3] addresses T2, BCDX2 (RAD51B-RAD51C-RAD51D-XRCC2) (Homo sapiens, UniProt O15315+O43502+O43543+O75771, O15315:K114A, form not given).
T2 construct: four-subunit complex co-expressed in Sf9 cells; N-terminal TwinStrep-TEV tag on XRCC2 removed by TEV protease
The test can be described thus: HPLC of nucleotides extracted from purified complex. It counts as binding. The settings on record: RAD51B Walker A mutant; nucleotide co-purified with the complex; 2.5 mM Mg2+, pH 7.5.

For test [4], the target named is T3, BCDX2 (RAD51B-RAD51C-RAD51D-XRCC2) (Homo sapiens, UniProt O15315+O43502+O43543+O75771, O15315:E144A, form not given).
T3 construct: four-subunit complex co-expressed in Sf9 cells; N-terminal TwinStrep-TEV tag on XRCC2 removed by TEV protease
As to the kind of experiment: ATPase assay, alpha-32P-ATP, TLC. The note with it: RAD51B catalytic glutamate mutant; 15 µM ATP, 1 µM complex, 2.5 mM Mg2+, pH 7.5, 37 °C. The test is classed as biochemical.

Test [5] deals with T4, BCDX2 (RAD51B-RAD51C-RAD51D-XRCC2) (Homo sapiens, UniProt O15315+O43502+O43543+O75771, O15315:E144A/O43502:E161A, form not given).
T4 construct: four-subunit complex co-expressed in Sf9 cells; N-terminal TwinStrep-TEV tag on XRCC2 removed by TEV protease
The test can be described thus: HPLC of nucleotides extracted from purified complex. The test is classed as binding. The settings on record: RAD51B and RAD51C catalytic glutamate double mutant; 2.5 mM Mg2+, pH 7.5.

Test [6] has as its target T2, BCDX2 (RAD51B-RAD51C-RAD51D-XRCC2). The description is as above. The test is classed as binding. The settings on record: RAD51B Walker A mutant; nucleotide co-purified with the complex; 2.5 mM Mg2+, pH 7.5. This is another data set of the same source.
The target of test [7] is T5, BCDX2 (RAD51B-RAD51C-RAD51D-XRCC2) (Homo sapiens, UniProt O15315+O43502+O43543+O75771, O43502:E161A, form not given).
T5 construct: four-subunit complex co-expressed in Sf9 cells; N-terminal TwinStrep-TEV tag on XRCC2 removed by TEV protease
Described as above. The test is classed as binding. The note with it: RAD51C catalytic glutamate mutant; 2.5 mM Mg2+, pH 7.5.

Test [8] concerns the target T1, BCDX2 (RAD51B-RAD51C-RAD51D-XRCC2). The description is as above. The settings on record: nucleotide co-purified with the complex; 2.5 mM Mg2+, pH 7.5. The test is classed as binding.

T1 sequence (O15315 1-345): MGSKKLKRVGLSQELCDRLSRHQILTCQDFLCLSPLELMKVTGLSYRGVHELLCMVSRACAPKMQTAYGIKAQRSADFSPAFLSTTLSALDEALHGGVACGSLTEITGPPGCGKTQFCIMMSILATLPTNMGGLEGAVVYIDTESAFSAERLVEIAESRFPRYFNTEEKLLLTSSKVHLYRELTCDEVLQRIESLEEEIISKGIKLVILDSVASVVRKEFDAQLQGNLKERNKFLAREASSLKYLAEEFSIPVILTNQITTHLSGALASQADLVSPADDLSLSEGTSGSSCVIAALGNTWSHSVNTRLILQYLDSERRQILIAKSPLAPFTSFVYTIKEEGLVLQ
T1 sequence (O43502 whole entry): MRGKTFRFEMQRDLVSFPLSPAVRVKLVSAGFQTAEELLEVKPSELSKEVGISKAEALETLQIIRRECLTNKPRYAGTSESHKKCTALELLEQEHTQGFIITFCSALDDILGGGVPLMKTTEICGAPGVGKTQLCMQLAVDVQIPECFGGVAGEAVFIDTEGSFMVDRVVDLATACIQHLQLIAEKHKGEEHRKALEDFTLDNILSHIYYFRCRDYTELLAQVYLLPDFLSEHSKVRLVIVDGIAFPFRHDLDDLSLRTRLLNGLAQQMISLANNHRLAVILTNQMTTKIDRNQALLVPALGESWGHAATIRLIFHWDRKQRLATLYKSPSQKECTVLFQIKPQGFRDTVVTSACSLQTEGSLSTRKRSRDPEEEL
T1 sequence (O75771 whole entry): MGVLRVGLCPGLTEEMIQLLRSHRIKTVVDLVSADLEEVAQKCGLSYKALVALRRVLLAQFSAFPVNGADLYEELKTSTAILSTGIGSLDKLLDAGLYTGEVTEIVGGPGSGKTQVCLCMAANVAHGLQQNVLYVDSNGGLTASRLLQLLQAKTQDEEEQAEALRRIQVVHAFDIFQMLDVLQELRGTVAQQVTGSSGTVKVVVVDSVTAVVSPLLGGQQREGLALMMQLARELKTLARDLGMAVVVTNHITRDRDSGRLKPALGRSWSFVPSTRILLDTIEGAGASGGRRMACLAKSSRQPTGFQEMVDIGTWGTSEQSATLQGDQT
T1 sequence (O43543 whole entry): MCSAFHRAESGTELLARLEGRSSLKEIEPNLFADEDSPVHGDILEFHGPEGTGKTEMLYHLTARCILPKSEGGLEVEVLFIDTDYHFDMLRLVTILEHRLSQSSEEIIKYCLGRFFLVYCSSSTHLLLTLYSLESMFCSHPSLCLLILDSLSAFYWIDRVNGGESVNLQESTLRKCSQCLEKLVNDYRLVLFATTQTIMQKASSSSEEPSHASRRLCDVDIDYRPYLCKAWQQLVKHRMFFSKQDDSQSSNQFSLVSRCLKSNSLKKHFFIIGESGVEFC
T2 sequence (O15315 1-345 K114A, form open): as the sequence (O15315 1-345) above, with K114A counted along it
T2 sequence (O43502 whole entry, form open): as the sequence (O43502 whole entry) above
T2 sequence (O75771 whole entry, form open): as the sequence (O75771 whole entry) above
T2 sequence (O43543 whole entry, form open): as the sequence (O43543 whole entry) above
T4 sequence (O15315 1-345 E144A, form open): as the sequence (O15315 1-345) above, with E144A counted along it
T4 sequence (O43502 whole entry E161A, form open): as the sequence (O43502 whole entry) above, with E161A counted along it
T4 sequence (O75771 whole entry, form open): as the sequence (O75771 whole entry) above
T4 sequence (O43543 whole entry, form open): as the sequence (O43543 whole entry) above
T3 sequence (O15315 1-345 E144A, form open): as the sequence (O15315 1-345) above, with E144A counted along it
T3 sequence (O43502 whole entry, form open): as the sequence (O43502 whole entry) above
T3 sequence (O75771 whole entry, form open): as the sequence (O75771 whole entry) above
T3 sequence (O43543 whole entry, form open): as the sequence (O43543 whole entry) above
T5 sequence (O15315 1-345, form open): as the sequence (O15315 1-345) above
T5 sequence (O43502 whole entry E161A, form open): as the sequence (O43502 whole entry) above, with E161A counted along it
T5 sequence (O75771 whole entry, form open): as the sequence (O75771 whole entry) above
T5 sequence (O43543 whole entry, form open): as the sequence (O43543 whole entry) above

On to `Nc1ncnc2c1ncn2[C@@H]1O[C@H](COP(=O)(O)OP(=O)(O)O)[C@@H](O)[C@H]1O` [ADP], for which the “nt of ADP bound per complex” value in test [1] amounted to 1.9 ± 0.1 nt per complex; in test [3] it was 1.2 ± 0.1 nt per complex. Further, the “cryo-EM structure (2.2 Å and 3.4 Å)” value in test [2] (site: RAD51C nucleotide site) was “RAD51D and XRCC2 bound ATP whereas RAD51C bound ADP”.
With `Nc1ncnc2c1ncn2[C@@H]1O[C@H](COP(=O)(O)OP(=O)(O)OP(=O)(O)O)[C@@H](O)[C@H]1O` [ATP], in test [4], the “% reduction of ATPase activity relative to wild-type” value is recorded as ~ 50%. The “HPLC of nucleotides extracted from purified complex” value in test [5] and in test [7] was “all nucleotide binding sites were fully occupied with ATP” in each case. The figures for the “nt of ATP bound per complex” value in test [6] and in test [8] were 1.8 ± 0.1 nt per complex and 2.1 ± 0.2 nt per complex, respectively. For the same compound, the “cryo-EM structure (2.2 Å and 3.4 Å)” value in test [2] (sites: RAD51D and XRCC2 nucleotide sites, co-purified nucleotide) was “RAD51D and XRCC2 bound ATP whereas RAD51C bound ADP”.
